Experimental data: patent US8088930B2, “Benzimidazole derivatives” (Hoffmann-La Roche Inc., priority 2008, dated 2012)
pIC50: −log10 of the molar value. Like-named read-outs stand apart in the source and are kept apart here.

Molecular target: T1, FXR ligand binding domain (GST-FXR LBD fusion protein, human FXR aa 193-473) (Homo sapiens, UniProt Q96RI1)
T1 construct: fused on or other part: Glutathione-S-transferase (GST) fused N-terminally to the FXR LBD, used to capture the protein on glutathione SPA beads
T1 sequence (Q96RI1 211-486 limits assumed): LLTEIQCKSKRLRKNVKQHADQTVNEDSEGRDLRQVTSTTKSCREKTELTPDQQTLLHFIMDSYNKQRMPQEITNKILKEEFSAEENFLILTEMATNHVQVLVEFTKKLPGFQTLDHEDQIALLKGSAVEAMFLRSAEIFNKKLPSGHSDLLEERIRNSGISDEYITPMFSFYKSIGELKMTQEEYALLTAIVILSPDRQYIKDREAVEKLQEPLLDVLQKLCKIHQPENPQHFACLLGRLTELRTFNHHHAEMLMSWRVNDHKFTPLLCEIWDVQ
Assay: Radioligand binding assay (scintillation proximity, radioligand displacement)
Conditions: 40 nM GST-FXR LBD on SPA beads, test compound 6×10^−9 M to 2.5×10^−5 M
Procedure: The following tests were carried out in order to determine the activity of the compounds of formula (I).
To accomplish this, the portions of the sequences encoding the FXR LBD were amplified by polymerase chain reaction (PCR) from a full-length clone by PCR and then subcloned into the plasmid vectors. The final clone was verified by DNA sequence analysis.
The induction, expression, and subsequent purification of GST-LBD fusion protein was performed in E. coli strain BL21(pLysS) cells by standard methods (Current Protocols in Molecular Biology, Wiley Press, ed. Ausubel et al.).
Radioligand Binding Assay
Binding of test substances to the FXR ligand binding domain was assessed in a radioligand displacement assay. The assay was performed in a buffer consisting of 50 mM Hepes, pH 7.4, 10 mM NaCl, 5 mM MgCl2, 0.01% CHAPS. For each reaction well in a 96-well plate, 40 nM of GST-FXR LBD fusion protein was bound to 10 μg glutathione yttrium silicate SPA beads (Pharmacia Amersham) in a final volume of 50 μl by shaking. A radioligand (e.g., 20 nM of 2,N-dicyclohexyl-2-[2-(2,4 dimethoxy-phenyl)-benzoimidazol-1-yl]-acetamide) and test compounds were added, and scintillation proximity counting was performed. All binding assays were performed in 96-well plates and the amount of bound ligand was measured on a Packard TopCount using OptiPlates (Packard).

| SMILES | pIC50 (read-out: h-IC50 Binding) | pIC50 (h-IC50 Binding) |
| --- | --- | --- |
| O=C(O)c1cc(F)c(OCC(C2CCCCC2)n2c(-c3ccc(Cl)cc3)nc3ccccc32)c(F)c1 (single isomer, unassigned; (+)) [Example 103, (+)-4-{2-[2-(4-Chloro-phenyl)-benzoimidazol-1-yl]-2-cyclohexyl-ethoxy}-3,5-difluoro-benzoic acid] | 7.00 |  |
| Cc1cc(C(=O)O)cc(C)c1OCC(C1CCCCC1)n1c(-c2ccc(Cl)cc2)nc2ccccc21 (single isomer, unassigned; (+)) [Example 107, (+)-4-{2-[2-(4-Chloro-phenyl)-benzoimidazol-1-yl]-2-cyclohexyl-ethoxy}-3,5-dimethyl-benzoic acid] | 8.00 |  |
| O=C(O)c1cc(F)c(OCC(C2CCCCC2)n2c(-c3ccc(Cl)cc3)nc3ccccc32)c(Cl)c1 (single isomer, unassigned; (+)) [Example 110, (+)-3-Chloro-4-{2-[2-(4-chloro-phenyl)-benzoimidazol-1-yl]-2-cyclohexyl-ethoxy}-5-fluoro-benzoic acid] | 7.22 |  |
| Cc1cc(-c2nnn[nH]2)cc(C)c1OCC(C1CCCCC1)n1c(-c2ccc(Cl)cc2)nc2ccccc21 (single isomer, unassigned; (+)) [Example 113, (+)-2-(4-Chloro-phenyl)-1-{1-cyclohexyl-2-[2,6-dimethyl-4-(1H-tetrazol-5-yl)-phenoxy]-ethyl}-1H-benzoimidazole] | 8.70 |  |
| CC(C)(Oc1c(F)cc(C(=O)O)cc1F)C(C1CCCCC1)n1c(-c2ccc(Cl)cc2)nc2cc(F)c(F)cc21 (single isomer, unassigned; (+)) [Example 116, (+)-4-{2-[2-(4-Chloro-phenyl)-5,6-difluoro-benzoimidazol-1-yl]-2-cyclohexyl-1,1-dimethyl-ethoxy}-3,5-difluoro-benzoic acid] | 8.70 |  |
| O=C(O)C1(Oc2ccc(OCC(C3CCCCC3)n3c(-c4ccc(Cl)cc4)nc4cc(F)c(F)cc43)cc2)CCC1 (single isomer, unassigned; (+)) [Example 118, (+)-1-(4-{2-[2-(4-Chloro-phenyl)-5,6-difluoro-benzoimidazol-1-yl]-2-cyclohexyl-ethoxy}-phenoxy)-cyclobutanecarboxylic acid] | 6.51 |  |
| O=C(O)C1(Oc2ccc(OCC(C3CCCCC3)n3c(-c4ccc(Cl)cc4)nc4cc(F)c(F)cc43)cc2)CC1 (single isomer, unassigned; (+)) [Example 122, (+)-1-(4-{2-[2-(4-Chloro-phenyl)-5,6-difluoro-benzoimidazol-1-yl]-2-cyclohexyl-ethoxy}-phenoxy)-cyclopropanecarboxylic acid] | 6.74 |  |
| Fc1cc2nc(-c3ccc(Cl)cc3)n(C(COCC3CCCCC3)C3CCCCC3)c2cc1F (single isomer, unassigned; (-)) [Example 2, (−)-2-(4-Chloro-phenyl)-1-(1-cyclohexyl-2-cyclohexylmethoxy-ethyl)-5,6-difluoro-1H-benzoimidazole] | 7.22 |  |
| O=C(O)c1ccc(OCC(C2CCCCC2)n2c(-c3ccc(Cl)cc3)nc3cc(F)c(F)cc32)cc1 (single isomer, unassigned; (-)) [Example 6, (−)-4-{2-[2-(4-Chloro-phenyl)-5,6-difluoro-benzoimidazol-1-yl]-2-cyclohexyl-ethoxy}-benzoic acid] | 7.05 |  |
| O=C(O)c1ccc(OCC(C2CCCCC2)n2c(-c3ccc(Cl)cc3)nc3cc(F)c(F)cc32)c(F)c1 (single isomer, unassigned; (-)) [Example 8, (−)-4-{2-[2-(4-Chloro-phenyl)-5,6-difluoro-benzoimidazol-1-yl]-2-cyclohexyl-ethoxy}-3-fluoro-benzoic acid] |  | 7.70 |

Second part, led by results:

| pIC50 (read-out: h-IC50 Binding) | SMILES | pIC50 (h-IC50 Binding) |
| --- | --- | --- |
| 7.30 | COc1ccc(-c2nc3cc(F)c(F)cc3n2C(COc2c(F)cc(C(=O)O)cc2F)C2CCCCC2)c(OC)n1 (single isomer, unassigned; (+)) [Example 97, (+)-4-{2-Cyclohexyl-2-[2-(2,6-dimethoxy-pyridin-3-yl)-5,6-difluoro-benzoimidazol-1-yl]-ethoxy}-3,5-difluoro-benzoic acid] |  |
| 7.70 | COc1ccc(-c2nc3cc(F)c(F)cc3n2C(COc2c(C)cc(-c3nnn[nH]3)cc2C)C2CCCCC2)c(OC)n1 (single isomer, unassigned; (+)) [Example 100, (+)-1-{1-Cyclohexyl-2-[2,6-dimethyl-4-(1H-tetrazol-5-yl)-phenoxy]-ethyl}-2-(2,6-dimethoxy-pyridin-3-yl)-5,6-difluoro-1H-benzoimidazole] |  |
| 7.52 | Cc1cc(Cl)ccc1-c1nc2cc(F)c(F)cc2n1C(COc1c(F)cc(C(=O)O)cc1F)C1CCCCC1 (single isomer, unassigned; (+)) [Example 126, (+)-4-{2-[2-(4-Chloro-2-methyl-phenyl)-5,6-difluoro-benzoimidazol-1-yl]-2-cyclohexyl-ethoxy}-3,5-difluoro-benzoic acid] |  |
| 8.00 | O=C(O)c1cc(F)c(OCC(C2CCCCCC2)n2c(-c3ccc(Cl)cc3)nc3cc(F)c(F)cc32)c(F)c1 (single isomer, unassigned; (+)) [Example 133, (+)-4-{2-[2-(4-Chloro-phenyl)-5,6-difluoro-benzoimidazol-1-yl]-2-cycloheptyl-ethoxy}-3,5-difluoro-benzoic acid] |  |
| 6.70 | O=C(O)c1ccc(CCC(C2CCCCC2)n2c(-c3ccccc3)nc3cc(F)c(F)cc32)cc1 (single isomer, unassigned; (+)) [Example 144, (+)-4-[3-Cyclohexyl-3-(5,6-difluoro-2-phenyl-benzoimidazol-1-yl)-propyl]-benzoic acid] |  |
| 9.40 | COc1ccc(-c2nc3cc(F)c(F)cc3n2C(CCc2ccc(C(=O)O)cc2)C2CCCCC2)c(OC)n1 (single isomer, unassigned; (+)) [Example 147, (+)-4-{3-Cyclohexyl-3-[2-(2,6-dimethoxy-pyridin-3-yl)-5,6-difluoro-benzoimidazol-1-yl]-propyl}-benzoic acid] |  |
| 7.30 | Cc1cc(C(=O)O)ccc1OCC(C1CCCCC1)n1c(-c2ccc(Cl)cc2)nc2cc(F)c(F)cc21 (single isomer, unassigned; (-)) [Example 12, (−)-4-{2-[2-(4-Chloro-phenyl)-5,6-difluoro-benzoimidazol-1-yl]-2-cyclohexyl-ethoxy}-3-methyl-benzoic acid] |  |
| 6.22 | O=C(O)c1ccc(OCC(C2CCCCC2)n2c(-c3ccc(Cl)cc3)nc3cc(F)c(F)cc32)nc1 (single isomer, unassigned; (-)) [Example 21, (−)-6-{2-[2-(4-Chloro-phenyl)-5,6-difluoro-benzoimidazol-1-yl]-2-cyclohexyl-ethoxy}-nicotinic acid] |  |
| 7.70 | O=C(O)c1cnc(OCC(C2CCCCC2)n2c(-c3ccc(Cl)cc3)nc3cc(F)c(F)cc32)c(Cl)c1 (single isomer, unassigned; (-)) [Example 24, (−)-5-Chloro-6-{2-[2-(4-chloro-phenyl)-5,6-difluoro-benzoimidazol-1-yl]-2-cyclohexyl-ethoxy}-nicotinic acid] |  |
| 7.40 | O=C(O)c1cnc(OCC(C2CCCCC2)n2c(-c3ccc(Cl)cc3)nc3cc(F)c(F)cc32)c2ccsc12 (single isomer, unassigned; (-)) [Example 28, (−)-4-{2-[2-(4-Chloro-phenyl)-5,6-difluoro-benzoimidazol-1-yl]-2-cyclohexyl-ethoxy}-thieno[3,2-c]pyridine-7-carboxylic acid] |  |
| 7.15 | O=C(O)c1ccc(OCC(C2CCCCC2)n2c(-c3ccc(Cl)cc3)nc3cc(F)c(F)cc32)c(C(F)(F)F)c1 (single isomer, unassigned; (-)) [Example 41, (−)-4-{2-[2-(4-Chloro-phenyl)-5,6-difluoro-benzoimidazol-1-yl]-2-cyclohexyl-ethoxy}-3-trifluoromethyl-benzoic acid] |  |
| 6.40 | O=C(O)c1c(F)cc(OCC(C2CCCCC2)n2c(-c3ccc(Cl)cc3)nc3cc(F)c(F)cc32)cc1F (single isomer, unassigned; (-)) [Example 44, (−)-4-{2-[2-(4-Chloro-phenyl)-5,6-difluoro-benzoimidazol-1-yl]-2-cyclohexyl-ethoxy}-2,6-difluoro-benzoic acid] |  |
| 6.40 | CC(C)(Oc1ccc(OCC(C2CCCCC2)n2c(-c3ccc(Cl)cc3)nc3cc(F)c(F)cc32)nc1)C(=O)O (single isomer, unassigned; (-)) [Example 49, (−)-2-(6-{2-[2-(4-Chloro-phenyl)-5,6-difluoro-benzoimidazol-1-yl]-2-cyclohexyl-ethoxy}-pyridin-3-yloxy)-2-methyl-propionic acid] |  |
